Among the data in publication PMC10493664, “The neurotrophic activities of brain‐derived neurotrophic factor are potentiated by binding with apigenin, a common flavone in vegetables, in stimulating the receptor signaling” (CNS Neuroscience & Therapeutics, 2023) are Kd values, retold here.

For this experiment, the target named is T1, BDNF (Homo sapiens, UniProt P23560).
T1 construct: purchased human BDNF (Alomone Labs); noncovalent dimer; PDB 1B8M used only as docking model
T1 sequence (P23560 129-247): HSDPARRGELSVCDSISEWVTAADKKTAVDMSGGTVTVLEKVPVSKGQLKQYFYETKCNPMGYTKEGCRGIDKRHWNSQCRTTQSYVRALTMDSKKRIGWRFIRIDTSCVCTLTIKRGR
Description: surface plasmon resonance (Biacore T100, BDNF on CM5 chip, steady-state affinity fit). The format is binding.

With `O=c1cc(-c2ccc(O)cc2)oc2cc(O)cc(O)c12` [apigenin], the Kd is about 14.2 µM.
